PubChem BioAssay (NCI)
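GI50 marks 50% less growth. TGI is the concentration that stops growth completely.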

How the values were obtained:
Experiment in all cases: NCI anticancer screen, dose series, 384-well format
[1] = tested on: 786-0 renal
[2] = tested on: A498 renal
[3] = tested on: A549 NSCLC
[4] = tested on: ACHN renal
[5] = tested on: BT-549 breast
[6] = tested on: CAKI-1 renal
[7] = tested on: CCRF-CEM leukemia
[8] = tested on: COLO 205 colon
[9] = tested on: DU-145 prostate
[10] = tested on: EKVX NSCLC
[11] = tested on: HCC-2998 colon
[12] = tested on: HCT-116 colon
[13] = tested on: HCT-15 colon
[14] = tested on: HL-60(TB) leukemia
[15] = tested on: HOP-62 NSCLC
[16] = tested on: HOP-92 NSCLC
[17] = tested on: HS 578T breast
[18] = tested on: HT29 colon
[19] = tested on: IGROV1 ovarian
[20] = tested on: K-562 leukemia
[21] = tested on: KM12 colon
[22] = tested on: LOX IMVI melanoma
[23] = tested on: M14 melanoma
[24] = tested on: MALME-3M melanoma
[25] = tested on: MCF7 breast
[26] = tested on: MDA-MB-231 breast
[27] = tested on: MDA-MB-435 melanoma
[28] = tested on: MDA-MB-468 breast
[29] = tested on: MOLT-4 leukemia
[30] = tested on: NCI-H226 lung
[31] = tested on: NCI-H23 lung
[32] = tested on: NCI-H322M lung
[33] = tested on: NCI-H460 NSCLC
[34] = tested on: NCI-H522 lung
[35] = tested on: NCI/ADR-RES ovarian
[36] = tested on: OVCAR-3 ovarian
[37] = tested on: OVCAR-4 ovarian
[38] = tested on: OVCAR-5 ovarian
[39] = tested on: OVCAR-8 ovarian
[40] = tested on: PC-3 prostate
[41] = tested on: RPMI-8226 leukemia
[42] = tested on: RXF 393 renal
[43] = tested on: SF-268 CNS
[44] = tested on: SF-295 CNS
[45] = tested on: SF-539 CNS
[46] = tested on: SK-MEL-2 melanoma
[47] = tested on: SK-MEL-28 melanoma
[48] = tested on: SK-MEL-5 melanoma
[49] = tested on: SK-OV-3 ovarian
[50] = tested on: SN12C renal
[51] = tested on: SNB-19 CNS
[52] = tested on: SNB-75 CNS
[53] = tested on: SW-620 colon
[54] = tested on: T-47D breast
[55] = tested on: TK-10 renal
[56] = tested on: U251 glioblastoma
[57] = tested on: UACC-257 melanoma
[58] = tested on: UACC-62 melanoma
[59] = tested on: UO-31 renal

In the case of CNC(=O)c1ccccc1Nc1nc(Nc2ccc(N3CCOCC3)cc2OC)ncc1Cl, the GI50 [1] is reported as 997 nM, the TGI [1] is reported as 4990 nM and the GI50 [2] is reported as 519 nM. For the same compound, the TGI [2] was 9570 nM, the GI50 [3] was 398 nM and the TGI [3] was 2120 nM. The GI50 [4] was 1110 nM, the TGI [4] was 9280 nM and the GI50 [5] was 1260 nM. It also gave a TGI [5] of 10400 nM, a GI50 [6] of 664 nM and a TGI [6] of 2440 nM. The GI50 [7] was 199 nM, the TGI [7] was 376 nM and the GI50 [8] was 138 nM. It also gave a TGI [8] of 289 nM, a GI50 [9] of 485 nM and a TGI [9] of 3470 nM. It also gave a GI50 [10] of 158 nM, a TGI [10] of 1320 nM and a GI50 [11] of 711 nM. For the same compound, the TGI [11] was 3360 nM, the GI50 [12] was 562 nM and the TGI [12] was 2850 nM. For the same compound, the GI50 [13] was 464 nM, the TGI [13] was 10900 nM and the GI50 [14] was 107 nM. It also gave a TGI [14] of 264 nM, a GI50 [15] of 751 nM and a TGI [15] of 8770 nM. It also gave a GI50 [16] of 472 nM, a TGI [16] of 2230 nM and a GI50 [17] of 977 nM. The TGI [17] was 3470 nM, the GI50 [18] was 200 nM and the TGI [18] was 1660 nM. It also gave a GI50 [19] of 380 nM, a TGI [19] of 1910 nM and a GI50 [20] of 4530 nM. For the same compound, the TGI [20] was 18100 nM, the GI50 [21] was 261 nM and the TGI [21] was 899 nM. For the same compound, the GI50 [22] was 754 nM, the TGI [22] was 2500 nM and the GI50 [23] was 359 nM. The TGI [23] was 5880 nM, the GI50 [24] was 287 nM and the TGI [24] was 4720 nM. For the same compound, the GI50 [25] was 93.7 nM, the TGI [25] was 14600 nM and the GI50 [26] was 715 nM. It also gave a TGI [26] of over 100000 nM, a GI50 [27] of 441 nM and a TGI [27] of 6630 nM. For the same compound, the GI50 [28] was 655 nM, the TGI [28] was 2200 nM and the GI50 [29] was 200 nM. The TGI [29] was 380 nM, the GI50 [30] was 636 nM and the TGI [30] was 5350 nM. The GI50 [31] was 431 nM, the TGI [31] was 2630 nM and the GI50 [32] was 1320 nM. For the same compound, the TGI [32] was 3980 nM, the GI50 [33] was 267 nM and the TGI [33] was 1160 nM. The GI50 [34] was 407 nM, the TGI [34] was 1720 nM and the GI50 [35] was 499 nM. It also gave a TGI [35] of 2720 nM, a GI50 [36] of 716 nM and a TGI [36] of 6280 nM. The GI50 [37] was 547 nM, the TGI [37] was 18700 nM and the GI50 [38] was 597 nM. It also gave a TGI [38] of 5660 nM, a GI50 [39] of 846 nM and a TGI [39] of 5780 nM. For the same compound, the GI50 [40] was 1870 nM, the TGI [40] was 13500 nM and the GI50 [41] was 236 nM. It also gave a TGI [41] of 826 nM, a GI50 [42] of 467 nM and a TGI [42] of 2310 nM. For the same compound, the GI50 [43] was 1620 nM, the TGI [43] was 14300 nM and the GI50 [44] was 511 nM. The TGI [44] was 7440 nM, the GI50 [45] was 1390 nM and the TGI [45] was 7130 nM. The GI50 [46] was 333 nM, the TGI [46] was 1670 nM and the GI50 [47] was 1340 nM. It also gave a TGI [47] of 13400 nM, a GI50 [48] of 766 nM and a TGI [48] of 10700 nM. The GI50 [49] was 741 nM, the TGI [49] was 4800 nM and the GI50 [50] was 1380 nM. For the same compound, the TGI [50] was 6860 nM, the GI50 [51] was 2690 nM and the TGI [51] was 19600 nM. The GI50 [52] was 1160 nM, the TGI [52] was 4180 nM and the GI50 [53] was 400 nM. It also gave a TGI [53] of 2440 nM, a GI50 [54] of 1710 nM and a TGI [54] of 8710 nM. It also gave a GI50 [55] of 450 nM, a TGI [55] of 2190 nM and a GI50 [56] of 2350 nM. It also gave a TGI [56] of 13200 nM, a GI50 [57] of 2620 nM and a TGI [57] of 22200 nM. It also gave a GI50 [58] of 487 nM, a TGI [58] of 2910 nM and a GI50 [59] of 718 nM. The TGI [59] was 5320 nM.
